Test results reported in patent US9718812B2, “Substituted thiazole or oxazole P2X7 receptor antagonists” (Axxam S.P.A., priority 2014, dated 2017).

These compounds were tested against P2X7 receptor (hP2X7) (Homo sapiens (Human), UniProt Q99572) (assay: Screen Quest Fluo-8 No Wash Calcium Assay (Bz-ATP-induced Ca2+ influx, FLIPR TETRA)). Details: HEK-293 cells stably transfected with P2X7 receptor, Fluo-8 calcium, Low Divalent Cation Assay Buffer.
Assay type: cell-based
Experimental: Extracellular binding of Bz-ATP to P2X7 receptor opens the channel and allows Ca2+ influx into the cells. This Ca2+ entry was measured in HEK-293 cells stably transfected with P2X7 receptor using Screen Quest™ Fluo-8 No Wash Calcium Assay Kit (AAt Bioquest®, cat. 36316). Once inside the cell, the lipophilic blocking groups of Fluo-8 are cleaved by non-specific cell esterases, resulting in a negatively-charged fluorescent dye that stays inside cells. Its fluorescence increases upon binding to calcium. When HEK-293/P2X7 cells are stimulated with Bz-ATP, Ca2+ enters the cells and the fluorescence of Fluo-8 NW increases. The dye has an absorption spectrum compatible with excitation at 488 nm by argon laser sources and its emission wavelength is in the range of 515-575 nm.
HEK-293 cells stably transfected with P2X7 receptor were seeded overnight in growth medium at 10,000 to 20,000 cells/well in 384-well plate. 24 hours later, the medium was removed and the cells were pre-loaded at RT for 1 hour with 20 μL/w of Fluo-8 NW. Then 10 μL/w of test compounds and reference antagonist A438079 at 3×-concentration were injected with the […] and the kinetic response over a period of five minutes was monitored.

Chain of P2X7 receptor (hP2X7) (Q99572 whole entry): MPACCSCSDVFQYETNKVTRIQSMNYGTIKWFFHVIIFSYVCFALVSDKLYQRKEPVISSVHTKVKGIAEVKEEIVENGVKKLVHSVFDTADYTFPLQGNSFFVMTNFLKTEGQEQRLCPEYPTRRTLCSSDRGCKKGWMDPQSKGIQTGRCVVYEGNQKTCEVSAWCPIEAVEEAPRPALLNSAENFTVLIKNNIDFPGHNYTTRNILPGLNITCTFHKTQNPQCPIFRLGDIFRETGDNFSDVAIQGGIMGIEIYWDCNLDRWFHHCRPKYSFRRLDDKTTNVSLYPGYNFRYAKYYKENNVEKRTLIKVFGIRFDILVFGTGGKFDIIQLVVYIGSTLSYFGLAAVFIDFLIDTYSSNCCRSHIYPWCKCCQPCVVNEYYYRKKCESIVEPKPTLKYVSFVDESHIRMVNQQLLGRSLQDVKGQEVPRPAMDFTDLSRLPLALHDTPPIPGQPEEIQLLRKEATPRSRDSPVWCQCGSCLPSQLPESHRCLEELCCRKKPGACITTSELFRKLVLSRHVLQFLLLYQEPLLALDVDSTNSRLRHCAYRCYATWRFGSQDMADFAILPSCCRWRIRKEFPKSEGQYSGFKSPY

Compound	IC50 [nM]
Cc1ncsc1C(CNC(=O)c1cc(-c2ncc(F)cn2)ccc1Cl)N1CC(F)(F)C1 (stereo not shown) [Compound 65, 2-chloro-N-[2-(3,3-difluoroazetidin-1-yl)-2-(4-methyl-1,3-thiazol-5-yl)ethyl]-5-(5-fluoropyrimidin-2-yl)benzamide]	39
CC(C)(C)c1ncc(C(CNC(=O)c2c(F)cccc2Cl)N2CCC(F)(F)CC2)s1 (stereo not shown) [Compound 118, N-[2-(2-tert-butyl-1,3-thiazol-5-yl)-2-(4,4-difluoropiperidin-1-yl)ethyl]-2-chloro-6-fluoro-benzamide]	243
Cc1ncsc1C(CNC(=O)c1cc(-c2ncc(F)cn2)ccc1F)N1CCOC(c2cnn(C)c2)C1 (stereo not shown) [Compound 98]	142
O=C(NCC(c1scnc1C1CC1)N1CCC(F)(F)CC1)c1c(F)cccc1Cl (stereo not shown) [Compound 123, 2-chloro-N-[2-(4-cyclopropyl-1,3-thiazol-5-yl)-2-(4,4-difluoropiperidin-1-yl)ethyl]-6-fluorobenzamide]	279
Cc1ncsc1C(CNC(=O)c1cc(-c2ncc(F)cn2)ccc1Cl)N1CCC(F)(F)CC1C (stereo not shown) [Compound 103, 2-chloro-N-[2-(4,4-difluoro-2-methylpiperidin-1-yl)-2-(4-methyl-1,3-thiazol-5-yl)ethyl]-5-(5-fluoropyrimidin-2-yl)benzamide]	186
Cc1ncsc1C(CNC(=O)c1c(F)cccc1Cl)N1CCOC2(CCC2)C1 (stereo not shown) [Compound 96, 2-chloro-6-fluoro-N-[2-(4-methyl-1,3-thiazol-5-yl)-2-{5-oxa-8-azaspiro[3.5]nonan-8-yl}ethyl]benzamide]	989
O=C(NCC(c1cnc(C2CCC(F)(F)CC2)s1)N1CCC(F)(F)CC1)c1cc(-c2ncc(F)cn2)ccc1Cl (stereo not shown) [Compound 126]	1430
Cc1cccc(-c2ccc(Cl)c(C(=O)NCC(c3cnc(C)s3)N3CCC(F)(F)CC3)c2)n1 (stereo not shown) [Compound 79, 2-chloro-N-[2-(4,4-difluoropiperidin-1-yl)-2-(2-methyl-1,3-thiazol-5-yl)ethyl]-5-(6-methylpyridin-2-yl)benzamide]	206
Cc1ncsc1C(CNC(=O)c1cc2c(cc1F)NC(=O)CC2)N1CCC(F)(F)CC1 (stereo not shown) [Compound 120, N-[2-(4,4-difluoropiperidin-1-yl)-2-(4-methyl-1,3-thiazol-5-yl)ethyl]-7-fluoro-2-oxo-1,2,3,4-tetrahydroquinoline-6-]	6910
Cc1ncc(C(CNC(=O)c2cc(-c3ncc(F)cn3)ccc2Cl)N2CCC(F)(F)CC2C)s1 (stereo not shown) [Compound 113, 2-chloro-N-[2-(4,4-difluoro-2-methylpiperidin-1-yl)-2-(2-methyl-1,3-thiazol-5-yl)ethyl]-5-(5-fluoropyrimidin-2-yl)]	743
O=C(NCC(c1cnc(C2CC2)s1)N1CCC(F)(F)CC1)c1cc(-c2ncc(F)cn2)ccc1F (stereo not shown) [Compound 86, N-[2-(2-cyclopropyl-1,3-thiazol-5-yl)-2-(4,4-difluoropiperidin-1-yl)ethyl]-2-fluoro-5-(5-fluoropyrimidin-2-yl)benzamide]	495
Cc1ncc(C(CNC(=O)c2cc(-c3cnccn3)ccc2Cl)N2CCC(F)(F)CC2)s1 (stereo not shown) [Compound 78, 2-chloro-N-[2-(4,4-difluoropiperidin-1-yl)-2-(2-methyl-1,3-thiazol-5-yl)ethyl]-5-(pyrazin-2-yl)benzamide]	133
Cc1ncsc1C(CNC(=O)c1c(F)cccc1Cl)N1CCOC(c2cnn(C)c2)C1 (stereo not shown) [Compound 92, 2-chloro-6-fluoro-N-[2-(4-methyl-1,3-thiazol-5-yl)-2-[2-(1-methyl-1H-pyrazol-4-yl)morpholin-4-yl]ethyl]benzamide]	171
Cc1ncsc1C(CNC(=O)c1cc(-c2ncc(F)cn2)ccc1Cl)N1CCOC(c2cnn(C)c2)C1 (stereo not shown) [Compound 97]	139
O=C(NCC(c1cnc(C2CCC(F)(F)CC2)s1)N1CCOCC1)c1cc(-c2ncc(F)cn2)ccc1Cl (stereo not shown) [Compound 125, 2-chloro-N-{2-[2-(4,4-difluorocyclohexyl)-1,3-thiazol-5-yl]-2-(morpholin-4-yl)ethyl}-5-(5-fluoropyrimidin-2-yl)benzamide]	336
Cc1ncsc1C(CNC(=O)c1cc(-c2ncc(F)cn2)ccc1F)N1CCOC2(CCC2)C1 (stereo not shown) [Compound 94, 2-fluoro-5-(5-fluoropyrimidin-2-yl)-N-[2-(4-methyl-1,3-thiazol-5-yl)-2-{5-oxa-8-azaspiro[3.5]nonan-8-yl}ethyl]benzamide]	321
CC(C)(C)c1ncc(C(CNC(=O)c2cc(-c3ncc(F)cn3)ccc2Cl)N2CCC(F)(F)CC2)s1 (stereo not shown) [Compound 122, N-[2-(2-tert-butyl-1,3-thiazol-5-yl)-2-(4,4-difluoropiperidin-1-yl)ethyl]-2-chloro-5-(5-fluoropyrimidin-2-yl)benzamide]	1060
O=C(NCC(c1cnc(C(F)(F)F)s1)N1CCC(F)(F)CC1)c1cc(-c2ncc(F)cn2)ccc1Cl (stereo not shown) [Compound 82]	737
O=C(NCC(c1scnc1C1CC1)N1CCC(F)(F)CC1)c1cc(-c2ncc(F)cn2)ccc1Cl (stereo not shown) [Compound 119]	319
Cc1ncsc1C(CNC(=O)c1c(F)cccc1Cl)N1CCOC(c2ccccc2C(F)(F)F)C1 (stereo not shown) [Compound 90, 2-chloro-6-fluoro-N-[2-(4-methyl-1,3-thiazol-5-yl)-2-{2-[2-(trifluoromethyl)phenyl]morpholin-4-yl}ethyl]benzamide]	412
Cc1ncsc1C(CNC(=O)c1ccc(N2CCCS2(=O)=O)cc1Cl)N1CCC(F)(F)CC1 (stereo not shown) [Compound 114]	367
Cc1ncsc1C(CNC(=O)c1c(F)cccc1Cl)N1CCC(F)(F)CC1C (stereo not shown) [Compound 104, 2-chloro-N-[2-(4,4-difluoro-2-methylpiperidin-1-yl)-2-(4-methyl-1,3-thiazol-5-yl)ethyl]-6-fluorobenzamide]	1870
Cc1ncsc1C(CNC(=O)c1cc(-c2ncc(F)cn2)ccc1Cl)N1CCC(Oc2ccccc2)CC1 (stereo not shown) [Compound 73, 2-chloro-5-(5-fluoropyrimidin-2-yl)-N-[2-(4-methyl-1,3-thiazol-5-yl)-2-(4-phenoxypiperidin-1-yl)ethyl]benzamide]	238
O=C(NCC(c1cnc(C2CCC(F)(F)CC2)s1)N1CCC(F)(F)CC1)c1c(F)cccc1Cl (stereo not shown) [Compound 117, 2-chloro-N-{2-[2-(4,4-difluorocyclohexyl)-1,3-thiazol-5-yl]-2-(4,4-difluoropiperidin-1-yl)ethyl}-6-fluorobenzamide]	429
Cc1ncc(C(CNC(=O)c2cc(-c3ncc(F)cn3)ccc2F)N2CCC(F)(F)CC2)s1 (stereo not shown) [Compound 80, N-[2-(4,4-difluoropiperidin-1-yl)-2-(2-methyl-1,3-thiazol-5-yl)ethyl]-2-fluoro-5-(5-fluoropyrimidin-2-yl)benzamide]	292
O=C(NCC(c1scnc1C1CC1)N1CCC(F)(F)CC1)c1cccc2ncccc12 (stereo not shown) [Compound 121, N-[2-(4-cyclopropyl-1,3-thiazol-5-yl)-2-(4,4-difluoropiperidin-1-yl)ethyl]quinoline-5-carboxamide]	531
COc1ccc(-c2ncc(F)cn2)cc1C(=O)NCC(c1scnc1C)N1CCC(F)(F)CC1 (stereo not shown) [Compound 71, N-[2-(4,4-difluoropiperidin-1-yl)-2-(4-methyl-1,3-thiazol-5-yl)ethyl]-5-(5-fluoropyrimidin-2-yl)-2-methoxybenzamide]	355
Cc1ncsc1C(CNC(=O)c1c(F)cccc1Cl)N1CCCC(F)(F)C1 (stereo not shown) [Compound 64, 2-chloro-N-[2-(3,3-difluoropiperidin-1-yl)-2-(4-methyl-1,3-thiazol-5-yl)ethyl]-6-fluorobenzamide]	253
CC(C)(C)c1ncc(C(CNC(=O)c2cccc3ncccc23)N2CCC(F)(F)CC2)s1 (stereo not shown) [Compound 124, N-[2-(2-tert-butyl-1,3-thiazol-5-yl)-2-(4,4-difluoropiperidin-1-yl)ethyl]quinoline-5-carboxamide]	3950

Each compound was assayed against P2X7 receptor (Homo sapiens (Human), UniProt Q99572) (assay: YO-PRO-1 Uptake Assay (large pore form, Bz-ATP stimulated)). Details: HEK-293 cells stably transfected with P2X7 receptor; Bz-ATP EC80 (30 μM); 5 μM YO-PRO-1.
Chain of P2X7 receptor (Q99572 whole entry): as above
Assay type: cell-based
Description: YO-PRO®-1 is a fluorescent DNA-binding dye with a MW of 374 Da (Molecular Probes®, cat. Y3603). This method is based upon the presumed ability of YO-PRO®-1 to enter through the dilated or “large pore form” of P2X7 receptor and to bind to intracellular DNA whereupon it increases many fold its fluorescence intensity. The dye has an absorption spectrum compatible with excitation at 488 nm by argon laser sources and its emission wavelength is in the range of 515-575 nm. The aim of this assay was to validate the interaction of antagonists with P2X7 receptor using an alternative readout to Ca^2+-sensitive fluorescent dyes.
HEK-293 cells stably transfected with P2X7 receptor were seeded overnight in growth medium at 20,000 cells/well in 384-well plate. 24 hours later, the medium was removed, the cells were washed with Low Divalent Cation Assay Buffer (0.3 mM Ca2+ and 0 mM Mg2+) and then pre-loaded with 20 μL/w of 5 μM YO-PRO®-1 dye. […] fluorescence measurement immediately started. Then, 10 μL/w of test compounds and reference antagonist A438079 at 3×-concentration were injected with the […] and the kinetic response over a period of five minutes was monitored. A second injection of 10 μL/w of 3× Bz-ATP EC80 (30 μM) was performed with the […] and the signal of the emitted fluorescence was recorded for additional 60 minutes. All the experiment was carried out with a Low Divalent Cation Assay Buffer (0.3 mM Ca^2+ and 0 mM Mg^2+).
The effect of the test compounds was measured as percent inhibition vs the reference antagonist and IC50 values were calculated accordingly.

Compound	IC50 [nM]
Cc1ncoc1C(CNC(=O)c1c(F)cccc1Cl)N1CCC(F)(F)CC1 (stereo not shown) [Compound 52, 2-chloro-N-[2-(4,4-difluoropiperidin-1-yl)-2-(4-methyl-1,3-oxazol-5-yl)ethyl]-6-fluorobenzamide]	2070
COc1cccc(C(=O)NCC(c2ocnc2C)N2CCOCC2)c1OC (stereo not shown) [Compound 53, 2,3-dimethoxy-N-[2-(4-methyl-1,3-oxazol-5-yl)-2-(morpholin-4-yl)ethyl]benzamide]	4900
